Where “and” joins values, the source holds several entries; their conditions need not be identical. Equal entries are not always repeated. Where two headings read alike, the source gives them in different places. Marks after values point to notes of the source that are not given here.
Tests used:
[1] = target: recombinant full-length BoNT/A light chain (rALC) (Clostridium botulinum, UniProt P0DPI0); assay: biochemical; settings: read-out: % Inhibition Against rALC
[2] = target: recombinant full-length BoNT/B light chain (rBLC) (Clostridium botulinum, UniProt P10844); assay: biochemical; settings: for inhibition at 20 µM: read-out: % Inhibition Against rBLC
[3] = tested on: BoNT/A-mediated cleavage of intracellular SNAP-25 in N2a cells; type: cell-based, murine; settings: 10 μM
[4] = tested on: BoNT/A-induced neuromuscular block in mouse phrenic nerve hemidiaphragm
[5] = tested on: neuroblastoma N2a cells; settings: for concentration well-tolerated by the cells / concentration toxic to N2a cells: mouse
[6] = target: BoNT/A (Clostridium botulinum, UniProt P0DPI0); assay: biochemical; settings: for inhibition at 5 µM: read-out: % Inhibition against BoNT/A (5 μM)
Chain of BoNT/A (P0DPI0 1-448 limits assumed): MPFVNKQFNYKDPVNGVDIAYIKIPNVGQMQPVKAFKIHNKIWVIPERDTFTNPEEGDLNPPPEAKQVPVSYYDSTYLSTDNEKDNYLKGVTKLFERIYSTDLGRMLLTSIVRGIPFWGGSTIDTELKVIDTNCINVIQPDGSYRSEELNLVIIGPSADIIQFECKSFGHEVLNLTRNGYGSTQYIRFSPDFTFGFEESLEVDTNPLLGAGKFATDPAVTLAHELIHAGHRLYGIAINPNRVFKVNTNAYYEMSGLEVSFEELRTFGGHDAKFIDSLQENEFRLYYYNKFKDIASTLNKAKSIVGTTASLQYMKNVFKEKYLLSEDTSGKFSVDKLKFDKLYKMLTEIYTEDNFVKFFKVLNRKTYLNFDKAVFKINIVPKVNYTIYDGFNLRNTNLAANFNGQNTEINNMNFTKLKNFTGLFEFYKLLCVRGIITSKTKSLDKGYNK

Chain of recombinant full-length BoNT/A light chain (rALC) (P0DPI0 2-448 limits assumed): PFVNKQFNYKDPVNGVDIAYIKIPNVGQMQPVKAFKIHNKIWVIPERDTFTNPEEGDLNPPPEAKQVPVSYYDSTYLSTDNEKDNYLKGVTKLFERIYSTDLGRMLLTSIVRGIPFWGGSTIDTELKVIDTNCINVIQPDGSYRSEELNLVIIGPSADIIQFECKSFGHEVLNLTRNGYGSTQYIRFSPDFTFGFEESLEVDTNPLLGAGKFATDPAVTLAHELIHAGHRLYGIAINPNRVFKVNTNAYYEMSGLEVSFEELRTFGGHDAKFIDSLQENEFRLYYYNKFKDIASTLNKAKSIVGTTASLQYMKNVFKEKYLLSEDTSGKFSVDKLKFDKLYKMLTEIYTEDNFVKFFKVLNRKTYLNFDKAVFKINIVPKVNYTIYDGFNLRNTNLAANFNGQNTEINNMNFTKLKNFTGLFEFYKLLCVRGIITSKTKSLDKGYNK
Chain of recombinant full-length BoNT/B light chain (rBLC) (P10844 2-441 limits assumed): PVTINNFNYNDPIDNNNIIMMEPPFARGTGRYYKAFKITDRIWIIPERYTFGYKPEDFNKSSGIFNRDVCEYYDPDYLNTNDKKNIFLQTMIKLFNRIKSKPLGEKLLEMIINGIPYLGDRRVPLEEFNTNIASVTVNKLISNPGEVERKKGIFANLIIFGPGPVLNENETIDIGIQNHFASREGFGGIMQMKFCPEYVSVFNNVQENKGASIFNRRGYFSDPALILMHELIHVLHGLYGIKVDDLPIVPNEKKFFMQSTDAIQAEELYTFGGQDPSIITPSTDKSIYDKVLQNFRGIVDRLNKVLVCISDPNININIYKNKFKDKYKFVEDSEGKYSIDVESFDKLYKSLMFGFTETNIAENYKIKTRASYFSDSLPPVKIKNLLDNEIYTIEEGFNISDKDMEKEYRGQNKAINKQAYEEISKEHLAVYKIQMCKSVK

Compound	inhibition at 20 µM [1]	inhibition at 20 µM [2]	cell toxicity [5]	IC50 [6]	inhibition at 5 µM [6]	further results
Oc1c(C(Nc2cccnc2)c2ccc(C(F)(F)F)cc2)ccc2cccnc12 (racemic) [CB 7967495]	92.7 ± 1.5%	30.2 ± 2.4%	non-toxic to cells			inhibition of SNAP-25 cleavage [3]: near-to-complete inhibition; effective concentration of inhibitor required for maximum protection [4]: 5 µM; concentration well-tolerated by the cells [5]: up to 50 μM
Oc1c(C(Nc2cccnc2)c2ccccc2F)ccc2cccnc12 (racemic) [CB 7968218]	92.8 ± 0.8%	16.8 ± 2.2%	non-toxic to cells			protection from SNAP-25 cleavage [3]: 68%; effective concentration of inhibitor required for maximum protection [4]: 10 µM; concentration toxic to N2a cells [5]: above 45 μM
CCOc1ccc(C(Nc2cccnc2)c2cc(Cl)c3cccnc3c2O)cc1 (racemic) [CB 7969312]	96.2 ± 1.2%	31.2 ± 3%	non-toxic to cells			inhibition of SNAP-25 cleavage [3]: near-to-complete inhibition; concentration well-tolerated by the cells [5]: up to 50 μM
Oc1c(C(Nc2cccc3cccnc23)c2ccccc2)ccc2cccnc12 (racemic) [NSC 84096]	91.9 ± 1.7%	6.9%	non-toxic to cells			protection from SNAP-25 cleavage [3]: 66%; Average Time to 50% Loss of Twitch Tension [4]: 59.7 ± 4.9^d min; effective concentration of inhibitor required for maximum protection [4]: 20 µM; concentration well-tolerated by the cells [5]: up to 50 μM
Nc1cc(C(Nc2ccccn2)c2ccccc2)c(O)c2ncccc12 (stereo not drawn) [Compound 4874-051A]				2.2 µM	94%	
Cc1ccc2ccc(C(Nc3cccnc3)c3ccccc3)c(O)c2n1 (stereo not drawn) [Compound 5116-047A]					83%	IC50 ([6]; read-out: IC50): 1.4 µM
Cc1ccc2ccc(C(Nc3cccnc3)c3ccc(F)cc3)c(O)c2n1 (stereo not drawn) [Compound 5116-048A]					87%	IC50 ([6]; read-out: IC50): 0.8 µM
Oc1c(C(Nc2cccnc2)c2ccc(F)cc2)ccc2cccnc12 (stereo not drawn) [Compound 5116-050A]				1.2 µM	86.7%	
Oc1c(C(Nc2cccnc2)c2ccc(F)cc2)cc(Cl)c2cccnc12 (stereo not drawn) [Compound 5116-051A]				< 1 µM	91%	
Oc1c(C(Nc2cccnc2)c2ccccc2F)cc(Cl)c2cccnc12 (stereo not drawn) [Compound 5116-052A]				< 1 µM	97.5%	
O=[N+]([O-])c1ccc(NC(c2ccccc2)c2ccc3cccnc3c2O)cc1 (stereo not drawn) [NSC 1010]						inhibition of BoNT serotype B light chain [2]: failed to inhibit; concentration toxic to N2a cells [5]: ≥ 10 µM
CRATKML [Ac-CRATKML-NH2, reference compound]						Average Time to 50% Loss of Twitch Tension [4]: 52.70 ± 9.30^c min and 65.0 ± 11.5^c min

Source: US10301265B2 (priority 2008, dated 2019)
